These results are taken from patent publication US20260224613A1, “Use Of Inorganic Nitrate For Preventing Restenosis And/Or Device Thrombosis” (Queen Mary University of London, priority 2023, published 2026).

Test [1] relates to Human Coronary Arterial Endothelial Cells (HCAEC). To be noted: NaNO2 3 μM; hypoxia 0.1% O2 24 h, re-oxygenation 8, 24 and 48 h; FIG. 2. The protocol:
(§1) FIG. 2—Effects of NaNO2 on cell proliferation of Human Coronary Arterial Endothelial Cells (HCAEC) and Human Coronary Arterial Smooth Muscle Cells (HCSMC) exposed to Ischaemia/Reperfusion injury. Cell Count of HCAEC and HCASMC respectively under hypoxia (0.1% O2, 24 h) and re-oxygenation (normoxia, 8, 24 and 48 h post ischaemia)) in the absence and presence of NaNO2 3 μM. n=7/group for HCAEC and n=5/group for HCASMC. Results are expressed as % changes of the respective matched normoxia controls. Data represent mean±SEM of the number of independent experiments performed as indicated above. Statistical significance determined using two-way ANOVA followed by post-test comparing response at each timepoint between treatments determined using Sidak's multiple comparison test.

The subject of test [2] is Human Coronary Arterial Smooth Muscle Cells (HCSMC). The conditions noted are these: NaNO2 3 μM; hypoxia 0.1% O2 24 h, re-oxygenation 8, 24 and 48 h; FIG. 2. As to the method: as §1

As for `O=N[O-].[Na+]` [nitrite, NaNO2], in test [1], the “endothelial cell growth following an ischaemia-reperfusion insult” value is “improves”. For the same molecule, the “growth of vascular smooth muscle cells following an ischaemia-reperfusion insult” value in test [2] is “suppressing”.
